Literature values in patent US20070197486A1, “Methods and systems for the delivery of corticosteroids” (Verus Pharmaceuticals, Inc., priority 2005, published 2007).
Like-named read-outs stand apart in the source and are kept apart here.

CCCC1O[C@@H]2C[C@H]3[C@@H]4CCC5=CC(=O)C=C[C@]5(C)[C@H]4[C@@H](O)C[C@]3(C)[C@]2(C(=O)CO)O1 (stereo partly drawn) [budesonide, (R,S)-11β,16α,17,21-tetrahydroxypregna-1,4-diene-3,20-dione cyclic 16,17-acetal with butyraldehyde]
solubility (in alcohols): readily soluble | solubility (in water): virtually insoluble
